The test system of assay [1] is diabetic foot animal model. Description: Diabetic foot animal model (high-fat diet mice, back wound). It is filed as in vivo, C57BL/6 male mice. The source says:
Twenty 2-month-old normal wild-type C57BL/6 male mice were ordered from Jicai Pharmaceutical and divided into two groups of 10 each. One group was fed a standard diet (SD), and the other group was fed a 60% high-fat diet (HFD) to induce obesity. Both groups were fed under the same conditions for about 6 months. Additionally, five 2-month-old young male mice were ordered to perform subsequent wound modeling and comparison with the SD group (8 months old, 10 mice) and the HFD group (8 months old, 10 mice). Mice were anesthetized with isoflurane, and a razor was used to remove the back hair, exposing the back skin. A marker pen and ruler were used to draw a 1.0 cm×0.5 cm rectangular area on each side of the back. A sterilized surgical scissor was used to cut away the skin in this area without damaging the subcutaneous tissue. After the mice regained consciousness, they were carefully placed back in their cages. The animals were euthanized at specified time intervals after the injury, and the wound tissue was collected for subsequent experiments and analysis. After creating wounds on the left and right sides of the mouse's back, the mice were grouped and administered drugs as indicated in the table below (where Control represents a blank drug control with DMSO+vehicle). The 1228 gel (0.5% or 1%) was administered every 12 hours, with a dose of 50 mg each time. The wounds were photographed and weighed daily (every 24 hours) for 7 days, and then samples were collected at the 7th day. Specific operational details are described in the section “3. Sample Collection and Analysis” below. [table] After anesthesia, the mice were placed on an operation table with their backs extended, and high-definition photographs of the entire back and the local wound area of the mice were taken (including a ruler). […] The body weight of the mice was also measured to analyze the impact of the drug on systemic metabolism. On the seventh day of wound repair after modeling on the mouse's back, the mice were euthanized, and the wound tissue was collected for subsequent experiments and analysis, including tissue from the center of the wound and distal non-wounded control skin. The tissue was embedded in OCT and subjected to cryosectioning for subsequent HE or multiple staining analysis. Mouse skin tissue was placed in an embedding box filled with OCT (Tissue-Tek® O.C.T. Compound, Catalog #4583, Sakura Finetek USA Inc) and laid flat on dry ice to quick-freeze. Once the OCT was fully frozen, the embedding box was transferred to a −20° C. freezer for storage. Before sectioning, the cryostat was pre-cooled to −25° C. […] The flattened tissue sections were attached to glass slides and checked under a microscope for completeness. The sections were left to air-dry at room temperature for 2-3 hours before being stored in a −20° C. freezer. The sections were taken out of the −20° C. freezer and allowed to thaw at room temperature, and the condensation water was dried for 10-20 minutes until completely dry. The sections were then fixed with 500-1000 μL of frozen 4% paraformaldehyde (4% paraformaldehyde prepared by diluting 10 ml of 16% PFA—paraformaldehyde in 30 ml of frozen PBS and stored at 4° C.) for 10 minutes at room temperature. The sections were washed once with dH2O (single distilled water) (incubation<1 minute). After washing, hematoxylin solution was added, and the sections were incubated for 55-60 seconds, then quickly washed three times with running tap water until no blue dye was visible. Eosin solution was added next, and the sections were incubated for 25-30 seconds, then quickly washed three times with running tap water, followed by washing with 70% ethanol once. The sections were dehydrated in 100% ethanol for 5 minutes and then in xylene for 5 minutes. Finally, the sections were coverslipped with a neutral resin, taking care not to trap air bubbles when placing the coverslip with forceps. […]

The next assay addresses TRKA (Homo sapiens (Human), UniProt P04629). Description: Inhibitory activity on TRKA (ADP-Glo Kinase Assay). A general note: ADP-Glo turns the ADP formed in a reaction into a luminescent signal.
The target of another assay is TRKC (Homo sapiens (Human), UniProt Q16288). Description: Inhibitory activity on TRKC (ADP-Glo Kinase Assay).
Chain of TRKC (Q16288 32-839): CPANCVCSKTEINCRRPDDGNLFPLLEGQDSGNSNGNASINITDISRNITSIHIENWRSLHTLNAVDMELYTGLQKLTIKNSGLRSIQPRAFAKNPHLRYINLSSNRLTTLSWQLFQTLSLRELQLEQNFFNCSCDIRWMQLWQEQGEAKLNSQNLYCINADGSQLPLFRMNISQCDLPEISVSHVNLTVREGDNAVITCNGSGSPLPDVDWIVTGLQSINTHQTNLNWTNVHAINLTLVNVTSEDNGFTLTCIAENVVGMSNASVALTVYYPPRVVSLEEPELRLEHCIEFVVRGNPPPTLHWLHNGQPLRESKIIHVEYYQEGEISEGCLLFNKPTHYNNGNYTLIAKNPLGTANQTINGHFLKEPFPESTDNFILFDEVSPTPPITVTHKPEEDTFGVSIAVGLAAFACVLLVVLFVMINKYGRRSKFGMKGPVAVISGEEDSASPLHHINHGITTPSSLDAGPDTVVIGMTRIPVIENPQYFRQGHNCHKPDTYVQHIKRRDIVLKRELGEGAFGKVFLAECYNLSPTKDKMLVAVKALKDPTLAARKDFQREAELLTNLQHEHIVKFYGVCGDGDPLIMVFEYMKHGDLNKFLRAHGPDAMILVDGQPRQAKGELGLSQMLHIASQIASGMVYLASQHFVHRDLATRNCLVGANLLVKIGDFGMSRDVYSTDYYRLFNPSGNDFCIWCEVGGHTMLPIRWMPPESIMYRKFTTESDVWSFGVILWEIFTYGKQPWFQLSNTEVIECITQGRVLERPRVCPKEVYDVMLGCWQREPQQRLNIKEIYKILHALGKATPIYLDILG

SMILES strings stand for the structures.

As a reminder, the IC50 is the concentration needed to halve the response being measured. A lower IC50 goes with higher potency.

Chain of TRKA (P04629 33-796 limits assumed): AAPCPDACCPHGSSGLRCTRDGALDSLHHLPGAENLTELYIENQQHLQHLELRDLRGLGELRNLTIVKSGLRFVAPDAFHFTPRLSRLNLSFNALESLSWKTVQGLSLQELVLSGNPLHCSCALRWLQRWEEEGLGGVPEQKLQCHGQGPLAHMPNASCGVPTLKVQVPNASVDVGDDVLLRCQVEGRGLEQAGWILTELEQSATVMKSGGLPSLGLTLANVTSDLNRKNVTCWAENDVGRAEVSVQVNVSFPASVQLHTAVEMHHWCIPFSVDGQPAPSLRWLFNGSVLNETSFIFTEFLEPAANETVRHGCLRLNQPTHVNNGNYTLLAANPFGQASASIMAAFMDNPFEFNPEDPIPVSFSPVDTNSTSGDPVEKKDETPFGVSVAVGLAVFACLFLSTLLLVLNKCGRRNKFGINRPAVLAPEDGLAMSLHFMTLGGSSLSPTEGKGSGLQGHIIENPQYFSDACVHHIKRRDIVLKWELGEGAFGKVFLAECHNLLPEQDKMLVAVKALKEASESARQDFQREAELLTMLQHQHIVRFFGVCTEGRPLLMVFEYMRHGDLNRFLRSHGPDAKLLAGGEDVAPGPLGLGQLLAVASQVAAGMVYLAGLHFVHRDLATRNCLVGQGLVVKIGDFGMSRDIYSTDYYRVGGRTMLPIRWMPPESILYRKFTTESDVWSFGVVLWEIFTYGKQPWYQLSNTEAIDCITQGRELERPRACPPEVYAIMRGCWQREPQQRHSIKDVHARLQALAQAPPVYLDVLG

Take `CCc1cc(O)c(F)cc1-c1ccc2c(-c3nc4c([nH]3)CN(C(=O)N3CC[C@H](O)C3)C4)n[nH]c2c1` [MDI-1228, (S)-(2-(6-(2-ethyl-5-fluoro-4-hydroxyphenyl)-1H-indazol-3-yl)-4,6-dihydropyrrolo[3,4-d]imidazol-5-(1H)-yl)(3-hydroxylpyrrolidin-1-yl)ketone]: in assay [1] (1% MDI-1228 gel, HFD group), the “Epithelial healing (wound non-healing distance)” value was “could effectively promote epithelial healing”. Further, the “Area of green lipid droplets in the wound center (Bodipy staining)” value in assay [1] (MDI-1228 gel 50 mg every 12 hours, 7 days) is “significantly reduced”. The “Size of the adipocytes in the wound center (HE staining)” value in assay [1] (MDI-1228 gel 50 mg every 12 hours, 7 days, vs. control) is “significantly reduced”. The IC50 against TRKA was 1.82 nM; at TRKC, 0.6 nM.

`CCc1cc(O)c(F)cc1-c1ccc2c(-c3nc4c([nH]3)CN(C(=O)NCC(O)CCl)C4)n[nH]c2c1` (stereo not shown) [MDI-1288]: in assay [1] (conclusion / summary statement), the “Lipolysis in the diabetic foot model” value is reported as “can significantly promote lipolysis”, the “Myofibroblasts at the wound” value is “significantly increase the proportion of myofibroblasts” and the Wound healing entry was “effectively promote wound healing”. Moreover, half-maximal inhibition against TRKA (IC50) required 0.89 nM. On TRKC, this molecule registered an IC50 of 0.59 nM.

The record behind these values is patent publication US20250387388A1, “COMPOUND AS TRK INHIBITOR AND/OR RET INHIBITOR AND USE THEREOF” (Medinno Pharmaceutical Technology (Zhuhai) Co., Ltd., priority 2022, published 2025).
